System: Albino Swiss CD-1 mice
Assay: Spontaneous motor activity test
Assay type: in vivo
Protocol: The research was conducted at the Department of Pharmacodynamics, Faculty of Pharmacy, Jagiellonian University in Krakow. All procedures were approved by the 1st and 2nd Local Ethics Committee for Animal Experiments in Krakow (consent no. 53/2017 and 250/2019) and were performed in accordance with the applicable European Union regulation (86/609/EEC). Males of two different strains of domestic mice (Mus musculus) were used in the study: Albino Swiss CD-1 (body weight approx. 20-24 g, age approx. 6 weeks) and C57BL/6J mice (body weight approx. 18-22 g, age approx. 6 weeks). The CD-1 strain was used for the passive avoidance, spontaneous mobility and rotating rod tests, while the C57BL/6J mice were used for the Morris water maze and the Barnes' maze. The animals were kept in standard, appropriately sized cages, divided into groups with a maximum of 10 animals. […]
In this test, the effect of compound JT-3 on the spontaneous motor activity of mice was investigated. […] The apparatus recorded the number of horizontal and vertical movements during the 60-minute test. The mice were put into the actometer, the measurement lasted for 1 hour, during which the camera counted the number of times the light beams were crossed, i.e. motor activity. […]

In the case of O[C@H](CNCC1CC1)[C@H](Cc1ccccc1)NC1c2ccccc2-c2ccccc21 [JT-3, (2R,3S)-3-((9H-fluoren-9-yl)amino)-1-((cyclopropylmethyl)amino)-4-phenylbutan-2-ol], the “effect on spontaneous motor activity (number of movements in 60 min)” value (10 mg/kg i.p.) is reported as “Neither of these doses affected the motility of the animals” and the “effect on spontaneous motor activity (number of movements in 60 min)” value (30 mg/kg i.p.) is reported as “Neither of these doses affected the motility of the animals”.

Reference: patent publication US12492163B2, “9H-fluorene derivatives or their pharmaceutically acceptable salts” (priority 2020, dated 2025)
